Test results published in paper PMC4703063, “Dual functionality of O-GlcNAc transferase is required for Drosophila development” (Open Biology, 2015).
Numbering of substitutions follows the chain as printed. Names and notes keep the numbering of the source.

Assays:
Δ1–352 DmOGT [1] = target: T1, Δ1–352 DmOGT (Drosophila melanogaster, UniProt Q7KJA9); assay: radiometric transfer assay on RBL2 peptide, three-parameter dose-response fit; format: biochemical
T1 construct: gene sxc; N-terminally truncated construct starting at residue 353 in TPR 10 (part of TPRs plus catalytic domain); expressed in E. coli (ArcticExpress), purified as hOGT Δ1-312; wild type in kinetics, K872M in crystal
T1 sequence (Q7KJA9 353-1059): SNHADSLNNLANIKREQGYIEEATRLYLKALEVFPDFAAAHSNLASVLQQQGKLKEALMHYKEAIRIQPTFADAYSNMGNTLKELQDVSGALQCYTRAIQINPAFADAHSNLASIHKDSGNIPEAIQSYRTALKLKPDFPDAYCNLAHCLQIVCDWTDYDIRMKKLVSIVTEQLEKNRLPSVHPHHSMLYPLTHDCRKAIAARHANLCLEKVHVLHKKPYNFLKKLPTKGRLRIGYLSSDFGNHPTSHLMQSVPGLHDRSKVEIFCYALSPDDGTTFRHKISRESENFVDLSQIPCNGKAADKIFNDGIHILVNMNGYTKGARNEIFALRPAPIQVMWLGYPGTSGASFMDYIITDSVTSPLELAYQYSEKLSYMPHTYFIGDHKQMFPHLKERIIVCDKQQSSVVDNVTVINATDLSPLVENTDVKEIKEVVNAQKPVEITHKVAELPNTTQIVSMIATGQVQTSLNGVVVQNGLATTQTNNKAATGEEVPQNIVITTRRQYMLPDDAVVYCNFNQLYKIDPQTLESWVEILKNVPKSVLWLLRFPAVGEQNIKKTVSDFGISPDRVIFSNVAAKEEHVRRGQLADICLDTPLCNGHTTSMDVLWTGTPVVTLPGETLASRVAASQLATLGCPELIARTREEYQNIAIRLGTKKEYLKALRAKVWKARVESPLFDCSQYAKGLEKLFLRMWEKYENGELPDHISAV

Δ1–312 hOGT [2] = target: T2, Δ1–312 hOGT (Homo sapiens, UniProt O15294); assay: as above; format: biochemical
T2 construct: gene OGT; N-terminally truncated, residues 1-312 removed (printed once as Δ1-313 beside the Ki); part of TPRs plus catalytic domain; recombinant
T2 sequence (O15294 323-1041): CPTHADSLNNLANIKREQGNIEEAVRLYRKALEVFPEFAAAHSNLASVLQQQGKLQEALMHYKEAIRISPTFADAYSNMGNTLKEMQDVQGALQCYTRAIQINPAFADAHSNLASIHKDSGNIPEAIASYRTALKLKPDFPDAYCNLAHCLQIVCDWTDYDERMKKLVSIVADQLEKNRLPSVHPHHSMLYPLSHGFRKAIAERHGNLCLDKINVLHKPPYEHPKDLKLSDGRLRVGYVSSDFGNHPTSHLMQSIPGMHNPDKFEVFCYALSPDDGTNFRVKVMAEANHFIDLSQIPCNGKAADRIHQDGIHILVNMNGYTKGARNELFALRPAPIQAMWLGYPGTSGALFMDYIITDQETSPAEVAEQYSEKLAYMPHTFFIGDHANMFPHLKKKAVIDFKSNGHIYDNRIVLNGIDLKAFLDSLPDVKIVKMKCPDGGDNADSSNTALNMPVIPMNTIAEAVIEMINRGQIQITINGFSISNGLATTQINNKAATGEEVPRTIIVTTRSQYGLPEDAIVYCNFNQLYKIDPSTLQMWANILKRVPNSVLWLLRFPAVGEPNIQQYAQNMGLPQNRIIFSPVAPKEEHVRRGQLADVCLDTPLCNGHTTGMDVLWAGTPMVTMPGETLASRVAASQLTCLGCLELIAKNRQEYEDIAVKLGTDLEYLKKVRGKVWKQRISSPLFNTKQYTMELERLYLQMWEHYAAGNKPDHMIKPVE

Δ1–352 DmOGT [3] = target: T3, Δ1–352 DmOGT (Drosophila melanogaster, UniProt Q7KJA9, K872M); assay: X-ray crystallography (co-crystal, […] Å); format: binding; conditions: 3 mM UDP-5S-GlcNAc; pH 7.5 protein buffer; 21 °C
T3 construct: gene sxc; N-terminally truncated construct starting at residue 353 in TPR 10 (part of TPRs plus catalytic domain); expressed in E. coli (ArcticExpress), purified as hOGT Δ1-312; wild type in kinetics, K872M in crystal
T3 sequence (Q7KJA9 353-1059 K872M): T1 sequence (Q7KJA9 353-1059) with K520M

Δ1–352 DmOGT [4] = target: T1, Δ1–352 DmOGT; assay: radiometric transfer assay on RBL2 peptide, Ki from IC50 by Cheng-Prusoff; format: biochemical
Δ1–312 hOGT [5] = target: T2, Δ1–312 hOGT; assay: as above; format: biochemical
[6] = substrate: CC(=O)N[C@H]1[C@@H](OP(=O)(O)OP(=O)(O)OC[C@H]2O[C@@H](n3ccc(=O)[nH]c3=O)[C@H](O)[C@@H]2O)O[C@H](CO)[C@@H](O)[C@@H]1O; assay: radiometric transfer assay on RBL2 peptide, Michaelis-Menten fit; format: biochemical, Drosophila melanogaster; conditions: 0.25 mM RBL2 peptide …, UDP-[3H]-GlcNAc tracer, pH 7.5
[7] = substrate: CC(=O)N[C@H]1[C@@H](OP(=O)(O)OP(=O)(O)OC[C@H]2O[C@@H](n3ccc(=O)[nH]c3=O)[C@H](O)[C@@H]2O)O[C@H](CO)[C@@H](O)[C@@H]1O; assay: as above; format: biochemical, Homo sapiens; conditions: 0.25 mM RBL2 peptide …, UDP-[3H]-GlcNAc tracer, pH 7.5

CC(=O)N[C@@H]1[C@@H](O)[C@H](O)[C@@H](CO)S[C@@H]1OP(=O)(O)OP(=O)(O)OC[C@H]1O[C@@H](n2ccc(=O)[nH]c2=O)[C@H](O)[C@@H]1O [UDP-5S-GlcNAc]
IC50 (Δ1–352 DmOGT [1]): 68.3 µM | IC50 (Δ1–312 hOGT [2]): 24.6 µM | X-ray crystallography (co-crystal, 2.7 Å) (Δ1–352 DmOGT [3]): crystallized in complex with the inhibitor/substrate analogue UDP-5S-GlcNAc | Ki (Δ1–352 DmOGT [4]): 36.2 µM | Ki (Δ1–312 hOGT [5]): 13.6 µM

B1: Δ1–352 DmOGT (Drosophila melanogaster) (protein)
chain: T1 sequence (Q7KJA9 353-1059)
notes: N-terminally truncated construct starting at residue 353 in TPR 10 (part of TPRs plus catalytic domain); expressed in E. coli (ArcticExpress), purified as hOGT Δ1-312; wild type in kinetics, K872M in crystal
Km [6]: 17.8 ± 0.7 µM

B2: Δ1–312 hOGT (Homo sapiens) (protein)
chain: T2 sequence (O15294 323-1041)
notes: N-terminally truncated, residues 1-312 removed (printed once as Δ1-313 beside the Ki); part of TPRs plus catalytic domain; recombinant
Km [7]: 6.6 ± 0.3 µM
